In PubChem BioAssay (NCI):
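The compound was tested at five concentrations on cells cultured in 96-well plates, with a 48-hour exposure period. TGI marks complete inhibition of growth.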

How the values were obtained:
Test in all cases: DTP human tumour cell line panel, 48 h
SK-MEL-5 melanoma = test system: SK-MEL-5 melanoma
MOLT-4 leukemia = test system: MOLT-4 leukemia
786-0 renal = test system: 786-0 renal
SF-539 CNS = test system: SF-539 CNS
A498 renal = test system: A498 renal
MDA-N = test system: MDA-N
HT29 colon = test system: HT29 colon
SNB-19 CNS = test system: SNB-19 CNS
RPMI-8226 leukemia = test system: RPMI-8226 leukemia
RXF 393 renal = test system: RXF 393 renal
PC-3 prostate = test system: PC-3 prostate
MDA-MB-231 breast = test system: MDA-MB-231 breast
U251 CNS = test system: U251 CNS
HCC-2998 colon = test system: HCC-2998 colon
K-562 leukemia = test system: K-562 leukemia
HOP-92 NSCLC = test system: HOP-92 NSCLC
MDA-MB-435 = test system: MDA-MB-435
SR leukemia = test system: SR leukemia
MCF7 breast = test system: MCF7 breast
UO-31 renal = test system: UO-31 renal
OVCAR-5 ovarian = test system: OVCAR-5 ovarian
OVCAR-8 ovarian = test system: OVCAR-8 ovarian
NCI-H460 lung = test system: NCI-H460 lung
ACHN renal = test system: ACHN renal
A549 NSCLC = test system: A549 NSCLC
HL-60(TB) leukemia = test system: HL-60(TB) leukemia
T-47D breast = test system: T-47D breast
NCI-H522 lung = test system: NCI-H522 lung
OVCAR-3 ovarian = test system: OVCAR-3 ovarian
BT-549 breast = test system: BT-549 breast
UACC-257 melanoma = test system: UACC-257 melanoma
DU-145 prostate = test system: DU-145 prostate
SN12C renal = test system: SN12C renal
CAKI-1 renal = test system: CAKI-1 renal
HOP-62 NSCLC = test system: HOP-62 NSCLC
OVCAR-4 ovarian = test system: OVCAR-4 ovarian
NCI-H226 lung = test system: NCI-H226 lung
IGROV1 ovarian = test system: IGROV1 ovarian
NCI/ADR-RES ovarian = test system: NCI/ADR-RES ovarian
M14 melanoma = test system: M14 melanoma
SF-295 CNS = test system: SF-295 CNS
SK-MEL-2 melanoma = test system: SK-MEL-2 melanoma
SF-268 CNS = test system: SF-268 CNS
KM12 colon = test system: KM12 colon
TK-10 renal = test system: TK-10 renal
UACC-62 melanoma = test system: UACC-62 melanoma
COLO 205 colon = test system: COLO 205 colon
MALME-3M melanoma = test system: MALME-3M melanoma
LOX IMVI melanoma = test system: LOX IMVI melanoma
HCT-15 colon = test system: HCT-15 colon
SK-OV-3 ovarian = test system: SK-OV-3 ovarian
EKVX NSCLC = test system: EKVX NSCLC
SW-620 colon = test system: SW-620 colon
NCI-H23 lung = test system: NCI-H23 lung
HS 578T breast = test system: HS 578T breast
HCT-116 colon = test system: HCT-116 colon
SK-MEL-28 melanoma = test system: SK-MEL-28 melanoma
CCRF-CEM leukemia = test system: CCRF-CEM leukemia

Work on `COc1ccc(Nc2nc(N)c(C(=O)c3cccs3)s2)cc1` yielded a TGI (SK-MEL-5 melanoma) of 12.8 µM, a TGI (MOLT-4 leukemia) of 17.2 µM and a TGI (786-0 renal) greater than 56.6 µM. It also gave a TGI (SF-539 CNS) of 19.5 µM, a TGI (A498 renal) of 40.5 µM and a TGI (MDA-N) greater than 82.4 µM. The TGI (HT29 colon) was greater than 41.4 µM, the TGI (SNB-19 CNS) was greater than 64.8 µM and the TGI (RPMI-8226 leukemia) was 21.7 µM. It also gave a TGI (RXF 393 renal) of 33.8 µM, a TGI (PC-3 prostate) greater than 60.2 µM and a TGI (MDA-MB-231 breast) greater than 80.8 µM. The TGI (U251 CNS) was greater than 100 µM, the TGI (HCC-2998 colon) was 8.85 µM and the TGI (K-562 leukemia) was greater than 100 µM. The TGI (HOP-92 NSCLC) was 89.3 µM, the TGI (MDA-MB-435) was 22.8 µM and the TGI (SR leukemia) was 5.88 µM. It also gave a TGI (MCF7 breast) of 24.9 µM, a TGI (UO-31 renal) greater than 41.1 µM and a TGI (OVCAR-5 ovarian) greater than 79.7 µM. For the same compound, the TGI (OVCAR-8 ovarian) was greater than 100 µM, the TGI (NCI-H460 lung) was 11.1 µM and the TGI (ACHN renal) was greater than 100 µM. The TGI (A549 NSCLC) was greater than 47.8 µM, the TGI (HL-60(TB) leukemia) was greater than 22.8 µM and the TGI (T-47D breast) was greater than 64.1 µM. It also gave a TGI (NCI-H522 lung) greater than 100 µM, a TGI (OVCAR-3 ovarian) greater than 32.4 µM and a TGI (BT-549 breast) greater than 100 µM. For the same compound, the TGI (UACC-257 melanoma) was 31.3 µM, the TGI (DU-145 prostate) was 36.3 µM and the TGI (SN12C renal) was greater than 75.6 µM. For the same compound, the TGI (CAKI-1 renal) was greater than 100 µM, the TGI (HOP-62 NSCLC) was greater than 67.7 µM and the TGI (OVCAR-4 ovarian) was 48.1 µM. It also gave a TGI (NCI-H226 lung) of 19.2 µM, a TGI (IGROV1 ovarian) of 41.5 µM and a TGI (NCI/ADR-RES ovarian) greater than 100 µM. The TGI (M14 melanoma) was 34.6 µM, the TGI (SF-295 CNS) was greater than 100 µM and the TGI (SK-MEL-2 melanoma) was greater than 51.4 µM. The TGI (SF-268 CNS) was greater than 100 µM, the TGI (KM12 colon) was 15.9 µM and the TGI (TK-10 renal) was 24.3 µM. The TGI (UACC-62 melanoma) was greater than 54.2 µM, the TGI (COLO 205 colon) was 21.6 µM and the TGI (MALME-3M melanoma) was 64.8 µM. The TGI (LOX IMVI melanoma) was greater than 100 µM, the TGI (HCT-15 colon) was greater than 49.1 µM and the TGI (SK-OV-3 ovarian) was greater than 100 µM. It also gave a TGI (EKVX NSCLC) greater than 75 µM, a TGI (SW-620 colon) greater than 100 µM and a TGI (NCI-H23 lung) greater than 100 µM. The TGI (HS 578T breast) was greater than 61.9 µM, the TGI (HCT-116 colon) was greater than 36.5 µM and the TGI (SK-MEL-28 melanoma) was greater than 95.7 µM. It also gave a TGI (CCRF-CEM leukemia) of 12.8 µM.
